The source made the active and inactive calls. No cut-off for these calls is given here.
Tests used:
[1] = Solubility of compound in culture media; format: physicochemical
Mesenchymal stem cells [2] = experiment: Cytotoxicity against human derived mesenchymal stem cells assessed as cell viability upto 20 uM measured after 4 days; format: toxicity, cell-based; conditions: 96 h, time 4 day
Mesenchymal stem cells [3] = experiment: Effect on cell cycle progression in human derived mesenchymal stem cells upto 20 uM measured after 4 days; format: toxicity, cell-based; conditions: 96 h, time 4 day
Mesenchymal stem cells [4] = experiment: Induction of neural differentiation in human derived mesenchymal stem cells assessed as neuron formation measured TuJI expression by immunohistochemical analysis; format: functional, cell-based; conditions: dose 2-5 µM
[5] = Induction of neural differentiation in human derived mesenchymal stem cells assessed as neuron formation at 5 uM measured TuJI expression by immunohistochemical analysis relative to control; format: functional

Structure (SMILES)	solubility [1]	Activity (Mesenchymal stem cells [2])	Activity (Mesenchymal stem cells [3])	Activity (Mesenchymal stem cells [4])	fold change (FC) [5]	Activity (Mesenchymal stem cells [4]; DDE = dose-dependent effect)
CN1CCN(C(=O)NCc2csc(-c3ccccc3)n2)CC1	Soluble	Non-Toxic	Non-Toxic	Active	–	–
O=C(NCc1csc(-c2ccccc2)n1)N1CCOCC1	Soluble	Non-Toxic	Non-Toxic	–	2	Dde
